# Data: US4610994A, “1,2,3-triazole anticonvulsant drugs” (priority 1984, dated 1986)
# Several values for one entry are separate records, joined by “and”; a condition that tells them apart may be missing. Equal values may be shown once. Entries after “also recorded” stand apart in the source; their conditions may differ. Read-outs that look alike come from different tables or passages of the source.
# What was measured:
# [1] = tested on: maximal electro-shock seizure (MES) and subcutaneous pentylenetetrazole (Metrazole) seizure threshold (scMet); experiment: Phase I anticonvulsant screening (MES test and scMet test); assay type: in vivo, mouse; conditions: for signs of neurological deficit: at effective dose levels (Class I) or 300 mg/kg (8, 13); for Anticonvulsant Activity Group Classification: mouse, MES and scMet tests, doses up to 300 mg/kg; for protection: 300 mg/kg
# [2] = tested on: maximal electroshock seizures; experiment: maximal electroshock seizure (MES) pattern test in mice; conditions: for ED97: MES; for TPE: test not specified
# Method: (§1) All animals were allowed free access to both food (S/L Custom Lab Diet-7) and water, except when they were removed from their cages for the experimental procedure.
# (§2) The drugs were administered either orally or intraperitoneally in a volume of 0.01 ml/g body weight in mice and 0.04 ml/10 g in rats. All tests were conducted at the previously determined time of peak drug effect.
# (§3) The profile of anticonvulsant activity for each substance was established by five tests: one electrical and four chemical. The electrical test employed was the maximal electroshock seizure pattern test. […] Except for the sc Strych Test, these tests measure the ability of anticonvulsants to afford complete protection against threshold seizures induced by the subcutaneous injection of the CD97 of the convulsant agent.
# [3] = tested on: subcutaneous Picrotoxin seizures; experiment: subcutaneous Picrotoxin Seizure Threshold Test (sc Pic) in mice; assay type: in vivo, mice (male albino, CF No. 1); conditions: mice i.p., Compound 10 up to 300 mg/kg
# Method: as §1, §2, §3
# (§4) All convulsants were administered subcutaneously into a loose fold of skin on the back of the neck in a volume of 0.01 ml/g body weight in mice; Metrazol was injected in a volume of 0.02 ml/10 g body weight in rats. The convulsant drugs were administered at the previously determined time of peak anticonvulsant action of the drug under study. […] Except for strychnine, absence of a five-second episode of clonic spasms (threshold seizure) was taken as protection. In the case of strychnine, complete abolition of the hindleg tonic extension was taken as protection.
# in vivo [4] = conditions: mouse, ip
# [5] = tested on: subcutaneous Bicuculline seizures; experiment: subcutaneous Bicuculline Seizure Threshold Test (sc Bic) in mice; assay type: in vivo, mice (male albino, CF No. 1); conditions: mice i.p., Compound 10 up to 300 mg/kg
# Method: as §1, §2, §3, §4
# [6] = Phase III toxicity profile (overt signs and symptoms) in mice i.p.; conditions: for Profile of acute toxicity, 1 x TD50: 1TD50; for Profile of acute toxicity, 2 x TD50: 2TD50; for Profile of acute toxicity, 4 x TD50: 4TD50
# Method: (§5) The profile of toxicity for each test drug was established by the following procedures: Firstly, the minimal neurotoxic dose (TD50) was determined by the rotorod procedure at the time of peak neurotoxic effect. When a normal mouse is placed on a knurled rod one inch in diameter rotating at a speed of six rpm it can maintain its equilibrium for long periods of time. Neurological deficit is indicated by inability of the mouse to maintain its equilibrium for one minute in each of three trials on this rotating rod. […] The HD50 represents the median dose at which 50% of animals lose their righting reflex.
# [7] = tested on: subcutaneous Strychnine seizures; assay type: in vivo, mice (male albino, CF No. 1); conditions: for animals protected in the sc Strych test: mice, i.p.; for effectiveness by the sc Strych test: mice i.p., Compound 10 up to 300 mg/kg
# Method: as §1, §2, §3, §4
# [8] = loss of righting reflex (HD50) in mice i.p.; set-up: species or system mice (male albino, CF No. 1)
# Method: as §5
# [9] = tested on: subcutaneous Metrazol seizures; experiment: subcutaneous Metrazol Seizure Threshold Test (sc Met) in mice; conditions: for ED97: sc Met
# Method: as §1, §2, §3, §4
# in vivo [10] = conditions: mouse, po
# Method: as §1, §2
# (§6) The profile of toxicity for each test drug was established by the following procedures: Firstly, the minimal neurotoxic dose (TD50) was determined by the rotorod procedure at the time of peak neurotoxic effect. When a normal mouse is placed on a knurled rod one inch in diameter rotating at a speed of six rpm it can maintain its equilibrium for long periods of time. Neurological deficit is indicated by inability of the mouse to maintain its equilibrium for one minute in each of three trials on this rotating rod. Neurological deficit in rats is indicated by ataxia, loss of placing response and muscle tone.
# [11] = sc convulsant dose CD97 in rats; assay type: in vivo; conditions: Rattus norvegicus, subcutaneous
# From the text: as §3
# [12] = assay type: in vivo; conditions: mice, subcutaneous
# From the text: as §3
# [13] = minimal neurotoxicity (ataxia, loss of placing response and muscle tone) in rats; conditions: rats, oral
# Method: as §1, §2, §6
# [14] = tested on: subcutaneous Metrazol seizures; experiment: subcutaneous Metrazol Seizure Threshold Test (sc Met) in rats; conditions: for ED97: oral, sc Met
# Method: as §1, §2, §3, §4
# [15] = tested on: maximal electroshock seizures; experiment: maximal electroshock seizure (MES) pattern test in rats
# Method: as §1, §2, §3
# [16] = rats, oral, higher doses; cited from earlier work
# in vivo [17] = conditions: rat, po
# Method: as §1, §2, §6
# [18] = mice, i.p., 95% confidence interval
# 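Throughout, for Rotorod TD50: mice on rotorod: neurological deficit scored when the animal cannot keep balance for 1 min in every one of three trials on a 1-inch knurled rod turning at 6 rpm.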
# 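Throughout, for time of peak toxicity, rotorod: mice on rotorod: neurological deficit scored when the animal cannot keep balance for 1 min in every one of three trials on a 1-inch knurled rod turning at 6 rpm.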
molecule,measurement,setting,value
"Clc1ccc(-n2nncc2-c2ccccc2)cc1 [Compound 1, 1-(p-Chlorophenyl)-5-phenyl-1H--1,2,3-triazole]",signs of neurological deficit,[1],do not exhibit significant signs of neurological deficit
"Brc1ccc(-n2nncc2-c2ccccc2)cc1 [Compound 2, 1-(p-Bromophenyl)-5-phenyl-1H--1,2,3-triazole]",signs of neurological deficit,[1],do not exhibit significant signs of neurological deficit
"c1ccc(-n2nncc2-c2ccncc2)cc1 [Compound 3, 1-Phenyl-5-(4-pyridyl)-1H--1,2,3-triazole]",signs of neurological deficit,[1],do not exhibit significant signs of neurological deficit
"Fc1ccc(-n2nncc2-c2ccncc2)cc1 [Compound 4, 1-(p-Fluorophenyl)-5-(4-pyridyl)-1H--1,2,3-triazole]",Anticonvulsant Activity Group Classification,[1],II (Class II compounds show anticonvulsant activity at doses greater than 100 mg/kg or show activity at 100 mg/kg which is not reinforced by similar activity at 300 mg/kg)
"Cc1ccc(-n2nncc2-c2ccncc2)cc1 [Compound 5, 1-(p-Tolyl)-5-(4-pyridyl)-1H--1,2,3-triazole]",Anticonvulsant Activity Group Classification,[1],II (Class II compounds show anticonvulsant activity at doses greater than 100 mg/kg or show activity at 100 mg/kg which is not reinforced by similar activity at 300 mg/kg)
"COc1ccc(-n2nncc2-c2ccncc2)cc1 [Compound 6, 1-(p-Anisyl)-5-(4-pyridyl)-1H--1,2,3-triazole]",Anticonvulsant Activity Group Classification,[1],II (Class II compounds show anticonvulsant activity at doses greater than 100 mg/kg or show activity at 100 mg/kg which is not reinforced by similar activity at 300 mg/kg)
"Clc1ccc(-n2nncc2-c2ccncc2)cc1Cl [Compound 8, 1-(3,4-Dichlorophenyl)-5-(4-pyridyl)-1H--1,2,3-triazole]",protection,[1],100%
same,signs of neurological deficit,[1],without any signs of neurological deficit
same,Anticonvulsant Activity Group Classification,[1],II (Class II compounds show anticonvulsant activity at doses greater than 100 mg/kg or show activity at 100 mg/kg which is not reinforced by similar activity at 300 mg/kg)
"Brc1ccc(-n2nncc2-c2cccnc2)cc1 [Compound 11, 1-(p-bromophenyl)-5-(3-pyridyl)-1H-1,2,3-triazole]",signs of neurological deficit,[1],do not exhibit significant signs of neurological deficit
"Fc1ccc(-n2nncc2-c2cccnc2)cc1 [Compound 12, 1-(p-Fluorophenyl)-5-(3-pyridyl)-1H--1,2,3-triazole]",signs of neurological deficit,[1],do not exhibit significant signs of neurological deficit
"Clc1ccc(-n2nncc2-c2cccnc2)cc1Cl [Compound 13, 1-(3,4-Dichlorophenyl)-5-(3-pyridyl)-1H--1,2,3-triazole]",protection,[1],100%
same,signs of neurological deficit,[1],without any signs of neurological deficit
same,Anticonvulsant Activity Group Classification,[1],II (Class II compounds show anticonvulsant activity at doses greater than 100 mg/kg or show activity at 100 mg/kg which is not reinforced by similar activity at 300 mg/kg)
"Clc1ccc(-n2nncc2-c2ccccn2)cc1 [Compound 14, 1-(p-Chlorophenyl)-5-(2-pyridyl)-1H--1,2,3-triazole]",signs of neurological deficit,[1],do not exhibit significant signs of neurological deficit
"Cc1cccc(-n2nncc2-c2ccncc2)c1 [Compound 17, 1-(m-Tolyl)-5-(4-pyridyl)-1H--1,2,3-triazole]",Anticonvulsant Activity Group Classification,[1],II (Class II compounds show anticonvulsant activity at doses greater than 100 mg/kg or show activity at 100 mg/kg which is not reinforced by similar activity at 300 mg/kg)
"FC(F)(F)c1ccc(-n2nncc2-c2cccnc2)cc1 [Compound 19, 1-(p-Trifluoromethylphenyl)-5-(3-pyridyl)-1H--1,2,3-triazole]",Anticonvulsant Activity Group Classification,[1],II (Class II compounds show anticonvulsant activity at doses greater than 100 mg/kg or show activity at 100 mg/kg which is not reinforced by similar activity at 300 mg/kg)
CCC1(C)CC(=O)NC1=O (centres unmarked) [Ethosuximide],protection from maximal electroshock seizures,"[2]; mice, i.p.",not able to protect mice from maximal electroshock seizures
same,MES ED50,[2]; [18],> 1000 mg/kg
same,effectiveness by the sc Pic test,[3],effective
same,LD50 at 24 h,in vivo [4],1750 mg/kg
same,effectiveness by the sc Bic test,[5],had to be given in toxic doses to protect against sc Bic seizures
same,"Profile of acute toxicity, 1 x TD50",[6],Uncoordinated
same,"Profile of acute toxicity, 2 x TD50",[6],Uncoordinated
same,"Profile of acute toxicity, 4 x TD50",[6],Uncoordinated
same,Rotorod TD50,[18],440.83(383.09-485.34) mg/kg
same,Rotorod TD50,"mice, i.p., 95% confidence interval, listed as ethosuximide",440.83 mg/kg
same,Rotorod TD50,"mouse, in vivo, ip","44,.83(383.09-485.34) mg/kg"
same,TD50,"mouse, in vivo, po","879,21 mg/kg"
same,animals protected in the sc Strych test,[7],≤ 62%
same,HD50 (righting reflex),"[8]; mouse, in vivo, ip",850.61(751.19-917.93) mg/kg
same,TD50,"[8]; mouse, in vivo, ip, HD50 (righting reflex)",851 mg/kg
same,effectiveness by the sc Met test,"[9]; mice, i.p.",effective
same,sc Met ED50,[9]; [18],130.35 mg/kg and 130.35(110.99-150.45) mg/kg
same,sc Met ED50,"[9]; mice, p.o.",192.21 mg/kg
same,TD50,in vivo [10],879 mg/kg
C1CCc2nnnn2CC1 [Metrazol],ED97,[11],70 mg/kg
same,sc CD97,[12],85 mg/kg
CCC1(c2ccccc2)C(=O)NC(=O)NC1=O [Phenobarbital],ED97,"[2]; mice, i.p.",29
same,ED97,"[2]; mice, oral",46
same,effectiveness by the sc Pic test,[3],effective by all four anticonvulsant tests
same,effectiveness by the sc Pic test,[3]; listed as phenobarbital,effective by these tests
same,TD3,[13]; MES,14
same,TD3,[13]; sc Met,14
same,effectiveness by the sc Bic test,[5],effective by all four anticonvulsant tests
same,effectiveness by the sc Bic test,[5]; listed as phenobarbital,effective by these tests
same,"Profile of acute toxicity, 1 x TD50",[6],Ataxia with in-
same,"Profile of acute toxicity, 2 x TD50",[6],Ataxia with in-
same,TD3,"mice, i.p., MES",57
same,TD3,"mice, i.p., sc Met",57
same,TD3,"mice, oral, MES",58
same,TD3,"mice, oral, sc Met",58
same,effectiveness by the sc Strych test,[7],had to be given in toxic doses in order to protect against this chemical convulsant
same,effectiveness by the sc Strych test,[7]; listed as phenobarbital,effective by these tests
same,ED97,"[9]; mice, i.p.",27
same,ED97,"[9]; mice, oral",38
same,ED97,[14],34
same,ED97,"[15]; Rattus norvegicus, po",26 mg/kg
same,TPE,"[15]; rats p.o., test not specified",five
O=C1NC(=O)C(c2ccccc2)(c2ccccc2)N1 [Phenytoin],effectiveness by the sc Pic test,[3],ineffective
same,effectiveness by the sc Bic test,[5],ineffective
same,"Profile of acute toxicity, 1 x TD50",[6],"activity, slight ataxia, fre-"
same,"Profile of acute toxicity, 2 x TD50",[6],"Mild ataxia,"
same,"time of peak toxicity, rotorod","mouse, in vivo, ip",2 h
same,animals protected in the sc Strych test,[7],50%
same,HD50 (righting reflex),[8]; [18],178.34(152.93-195.45) mg/kg
same,HD50 (righting reflex),"[8]; mice, i.p., 95% confidence interval, listed as phenytoin",178.34 mg/kg
same,"time of peak toxicity (TPE), righting reflex","[8]; mouse, in vivo, ip",12 h
same,absorption from the gastrointestinal tract,[16],absorbed only to a limited extent
same,TD50,in vivo [17],> 3000 mg/kg
same,effectiveness by the sc Met test,"[9]; mice i.p., listed as phenytoin",did not protect against subcutaneous Metrazol seizures
same,effectiveness by the sc Met test,"[9]; mice, i.p.",ineffective
same,sc Met ED50,[9]; [18],> 300 mg/kg
same,effectiveness by the sc Met test,[14]; p.o.,ineffective
CCCC(CCC)C(=O)O [Valproate],TPE,[2]; mice i.p.,one-fourth
same,TPE,[2]; mice p.o.,one to two
same,ED97,"[2]; mice, i.p.",380
same,MES ED50,[2]; [18],271.66(246.97-337.89) mg/kg
same,MES ED50,"[2]; mice, i.p., 95% confidence interval, listed as valproate",271.66 mg/kg
same,ED97,"[2]; mice, oral",840
same,MES ED50,"[2]; mice, p.o.",664.80 mg/kg
same,effectiveness by the sc Pic test,[3],effective by all four anticonvulsant tests; also recorded: effective by these tests
same,TD3,[13]; MES,115
same,TD3,[13]; sc Met,115
same,effectiveness by the sc Bic test,[5],effective by all four anticonvulsant tests; also recorded: effective by these tests
same,"Profile of acute toxicity, 1 x TD50",[6],Mild ataxia
same,"Profile of acute toxicity, 2 x TD50",[6],Ataxia
same,"Profile of acute toxicity, 4 x TD50",[6],Both animals died.
same,TD3,"mice, i.p., MES",345
same,TD3,"mice, i.p., sc Met",345
same,TD3,"mice, oral, MES",500
same,TD3,"mice, oral, sc Met",500
same,effectiveness by the sc Strych test,[7],effective against strychnine in nontoxic doses; also recorded: effective by these tests
same,HD50 (righting reflex),[8]; [18],885.53 mg/kg and 885.53(820.86-947.04) mg/kg
same,TD50,"[8]; mouse, in vivo, ip, mice, i.p., 95% confidence interval, read-out: HD50 (righting reflex)",886 mg/kg
same,effectiveness by the sc Met test,"[9]; mice, i.p.",effective by all four anticonvulsant tests
same,ED97,"[9]; mice, i.p.",218
same,sc Met ED50,[9]; [18],148.59(122.64-177.02) mg/kg
same,ED97,"[9]; mice, oral",680
same,sc Met ED50,"[9]; mice, p.o.",388.31 mg/kg
same,ED97,[14],188
CN1CCc2cc3c(cc2[C@H]1[C@@H]1OC(=O)c2c1ccc1c2OCO1)OCO3 [bicuculline],sc CD97,[12],2.70 mg/kg
O=C1C[C@@H]2OCC=C3CN4CC[C@]56c7ccccc7N1[C@H]5[C@H]2[C@H]3C[C@H]46 [strychnine],sc CD97,[12],1.20 mg/kg
picrotoxin,sc CD97,[12],3.15 mg/kg
